Patent US11155567B2, “Sting agonist compounds and methods of use” (Mersana Therapeutics, Inc., priority 2019, dated 2021)

Target: T1, Human STING (Homo sapiens, UniProt Q86WV6, G230A/H232R/R293Q/R71H)
T1 construct: host or cells: THP1-Dual cells, digitonin-permeabilized
Test: Activation of human STING signaling in permeabilized THP1 cells, IRF3 induction
Type: cell-based
Conditions: THP1-Dual cells permeabilized with digitonin buffer 30 minutes on ice, then 24 h in RPMI media
Procedure: To evaluate IRF3 reporter levels, cell culture supernatant (20 μl) from each incubated sample was added to QUANTI-Luc™ assay solution (Invivogen, 50 μl), and the luminescence was measured with a SpectraMax M3 spectrophotometer (Molecular Devices).
4×10^5 THP1-Dual™ cells (NF-κB-SEAP and IRF-Lucia luciferase Reporter Monocytes, Invivogen) were incubated with test Compounds in a 5-fold titration steps from […] in permeabilized buffer (50 mM HEPES pH 7.0, 100 mM KCl, 3 mM MgCl2, 85 mM sucrose, 0.2% BSA, 1 mM ATP, 0.1 mM GTP, 0.1 mM TTP, 1 μg/ml digitonin) for 30 minutes on ice. Cells were then washed and incubated in a fresh RPMI media with 10% FBS at 37° C. with 5% CO2 for 24 h. Cell culture supernatants from each sample were collected and NFkB and IRF3 were evaluated as above. Table 3 provides the results for IRF3 induction (“A” means <1 μM; “B” means ≥1 μM and <50 μM; “C” means ≥50 μM).

T1 sequence (Q86WV6 whole entry R71H/G230A/H232R/R293Q): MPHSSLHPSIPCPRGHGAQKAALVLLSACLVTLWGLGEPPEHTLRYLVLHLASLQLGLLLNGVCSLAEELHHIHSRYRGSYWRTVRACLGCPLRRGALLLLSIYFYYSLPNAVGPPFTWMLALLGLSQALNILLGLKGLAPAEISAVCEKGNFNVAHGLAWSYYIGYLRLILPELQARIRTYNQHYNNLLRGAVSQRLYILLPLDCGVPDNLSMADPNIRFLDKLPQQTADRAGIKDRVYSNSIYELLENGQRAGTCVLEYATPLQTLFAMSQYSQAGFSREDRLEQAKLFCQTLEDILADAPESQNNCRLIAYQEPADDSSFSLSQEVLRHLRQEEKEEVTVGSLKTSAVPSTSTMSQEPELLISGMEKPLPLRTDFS

| Structure (SMILES) | EC50 [nM] |
| --- | --- |
| CCc1nc(C)oc1C(=O)Nc1nc2cc(C(N)=O)cc(OC)c2n1C/C=C/Cn1c(NC(=O)c2cnco2)nc2cc(C(N)=O)cc(OCCCO)c21 [Compound 138] | ≥ 50000 |
| CCc1ncoc1C(=O)/N=c1\sc2cc(C(N)=O)cc(OC)c2n1C/C=C/Cn1c(NC(=O)c2ocnc2CC)nc2cc(C(N)=O)cc(OCCCO)c21 [compound 64] | ≥ 50000 |
| CCn1nc(C)cc1C(=O)Nc1nc2cc(C(N)=O)cnc2n1C/C=C/Cn1c(NC(=O)c2cc(C)nn2CC)nc2cc(C(N)=O)cnc21 [compound 84] | < 1000 |
| Cn1nncc1C(=O)Nc1nc2cc(C(N)=O)ccc2n1C/C=C/Cn1c(NC(=O)c2cnnn2C)nc2cc(C(N)=O)cc(OCCCO)c21 [compound 27] | ≥ 50000 |
| COc1cc(C(N)=O)cc2nc(NC(=O)c3cc(C)no3)n(C/C=C/Cn3c(NC(=O)c4cc(C)no4)nc4cc(C(N)=O)cc(OCCCO)c43)c12 [compound 12] | 1000 to 50000 |
| CCn1nc(C)cc1C(=O)Nc1nc2cc(C(=O)OC)cnc2n1C/C=C/Cn1c(NC(=O)c2cc(C)nn2CC)nc2cc(C(N)=O)cc(OCCCO)c21 [Compound 123] | < 1000 |
| COc1cc(C(N)=O)cc2nc(NC(=O)c3nccn3C(C)C)n(C/C=C/Cn3c(NC(=O)c4nccn4C(C)C)nc4cc(C(N)=O)cc(OCCCO)c43)c12 [compound 15] | ≥ 50000 |
| CCn1nc(C)cc1C(=O)/N=c1\sc2cc(C(N)=O)cc(OCCCO)c2n1C/C=C/Cn1c(NC(=O)c2cc(C)nn2CC)nc2cc(C(N)=O)cnc21 [Compound 147] | 1000 to 50000 |
| CCc1nc(C)oc1C(=O)Nc1nc2cc(C(N)=O)cc(OC)c2n1C/C=C/Cn1c(NC(=O)c2cnc(C)o2)nc2cc(C(N)=O)cc(OCCCO)c21 [Compound 136] | ≥ 50000 |
| CCc1nc(C)oc1C(=O)Nc1nc2cc(C(N)=O)cnc2n1C/C=C/Cn1c(NC(=O)c2oc(C)nc2CC)nc2cc(C(N)=O)cc(Br)c21 [compound 90] | < 1000 |
| CCn1nc(C)cc1C(=O)/N=c1\sc2cc(C(=O)OC)cc(OC)c2n1C/C=C/Cn1c(NC(=O)c2cc(C)nn2CC)nc2cc(C(N)=O)cc(OCCCO)c21 [Compound 115] | < 1000 |
| CCc1nc(C)oc1C(=O)Nc1nc2cc(C(N)=O)cc(OC)c2n1C/C=C/Cn1c(NC(=O)c2sc(C)nc2CC)nc2cc(C(N)=O)cc(OCCCC(=O)O)c21 [Compound 149] | < 1000 |
| CCc1nc(C)oc1C(=O)Nc1nc2cc(C(N)=O)cc(OC)c2n1C/C=C/Cn1c(NC(=O)c2oc(C)nc2CC)nc2cc(C(N)=O)cc(OCCCC(=O)O)c21 [compound 19] | < 1000 |
| CCc1nc(C)sc1C(=O)Nc1nc2cc(C(N)=O)cc(OC)c2n1C/C=C/Cn1c(NC(=O)c2sc(C)nc2CC)nc2cc(C(N)=O)cc(OCCCO)c21 [compound 10] | < 1000 |
| CCc1nc(C)oc1C(=O)Nc1nc2cc(C(N)=O)cnc2n1C/C=C/Cn1c(NC(=O)c2sc(C)nc2CC)nc2cc(C(N)=O)cc(OCCCO)c21 [Compound 143] | < 1000 |
| CCc1nc(C)oc1C(=O)/N=c1\sc2cc(C(N)=O)cnc2n1C/C=C/Cn1c(NC(=O)c2oc(C)nc2CC)nc2cc(C(N)=O)cc(OCCCC(=O)O)c21 [Compound 155] | < 1000 |
| CCn1nc(C)cc1C(=O)Nc1nc2cc(C(N)=O)cnc2n1C/C=C/Cn1c(NC(=O)c2cc(C)nn2CC)nc2cc(C(N)=O)cc(Br)c21 [compound 89] | < 1000 |
| CCc1nc(C)oc1C(=O)Nc1nc2cc(C(N)=O)cnc2n1C/C=C/Cn1c(NC(=O)c2oc(C)nc2CC)nc2cc(C(N)=O)cc(OCCCN)c21 [compound 96] | < 1000 |
| CCc1nc(C)sc1C(=O)/N=c1\sc2cc(C(N)=O)cnc2n1C/C=C/Cn1c(NC(=O)c2sc(C)nc2CC)nc2cc(C(N)=O)cc(OCCCO)c21 [Compound 145] | ≥ 50000 |

| Structure (SMILES) | EC50 [nM] |
| --- | --- |
| CCc1nc(C)sc1C(=O)Nc1nc2cc(C(N)=O)cc(OCCCO)c2n1C/C=C/Cn1c(NC(=O)c2cc(C)nn2CC)nc2cc(C(N)=O)ccc21 [compound 52] | < 1000 |
| CCn1nc(C)cc1C(=O)Nc1nc2cccnc2n1C/C=C/Cn1c(NC(=O)c2cc(C)nn2CC)nc2cc(C(N)=O)cc(OCCCO)c21 [Compound 114] | 1000 to 50000 |
| CCc1nc(C)sc1C(=O)Nc1nc2cc(C(N)=O)cnc2n1C/C=C/Cn1c(NC(=O)c2sc(C)nc2CC)nc2cc(C(N)=O)cc(OCCCO)c21 [Compound 144] | ≥ 50000 |
| CCn1nc(C)cc1C(=O)Nc1nc2cc(C(N)=O)cnc2n1C/C=C/Cn1c(NC(=O)c2cc(C)nn2CC)nc2cc(C(N)=O)cc(OCCCO)c21 [compound 94] | < 1000 |
| NC(=O)c1ccc2c(c1)nc(NC(=O)c1cocn1)n2C/C=C/Cn1c(NC(=O)c2cocn2)nc2cc(C(N)=O)cc(OCCCO)c21 [compound 28] | ≥ 50000 |
| CCc1nc(C)oc1C(=O)Nc1nc2cc(C(N)=O)cc(OCCCO)c2n1C/C=C/Cn1/c(=N/C(=O)c2sc(C)nc2CC)sc2cc(C(N)=O)cc(OC)c21 [compound 76] | < 1000 |
| CCn1nc(C)cc1C(=O)/N=c1\sc2cc(C(N)=O)cc(OC)c2n1C/C=C/Cn1c(NC(=O)c2cc(C)nn2CC)nc2cc(C(N)=O)cc(OCCCN)c21 [compound 67] | < 1000 |
| CCn1nc(C)cc1C(=O)Nc1nc2cc(CN)cnc2n1C/C=C/Cn1c(NC(=O)c2cc(C)nn2CC)nc2cc(C(N)=O)cc(OCCCO)c21 [Compound 122] | < 1000 |
| CCn1nc(C)cc1C(=O)/N=c1\sc2cc(C(N)=O)cc(OC)c2n1C/C=C/Cn1c(NC(=O)c2ncnn2C(C)C)nc2cc(C(N)=O)cc(OCCCO)c21 [compound 71] | 1000 to 50000 |
| CCc1nn(C)cc1C(=O)Nc1nc2cc(C(N)=O)cc(OC)c2n1C/C=C/Cn1c(NC(=O)c2cn(C)nc2CC)nc2cc(C(N)=O)cc(OCCCO)c21 [compound 11] | 1000 to 50000 |
| CCc1nc(C)oc1C(=O)Nc1nc2cc(C(N)=O)cc(O)c2n1C/C=C/Cn1c(NC(=O)c2oc(C)nc2CC)nc2cc(C(N)=O)cc(O)c21 [Compound 139] | ≥ 50000 |
| CCc1nc(C)oc1C(=O)Nc1nc2cc(C(N)=O)cc(OCCCO)c2n1C/C=C/Cn1c(NC(=O)c2sc(C)nc2CC)nc2cc(C(N)=O)cc(OC)c21 [compound 37] | < 1000 |
| CCn1nc(C)cc1C(=O)/N=c1\sc2cc(C(N)=O)cnc2n1C/C=C/Cn1c(NC(=O)c2cc(C)nn2CC)nc2cc(C(N)=O)cc(OCCCC(=O)O)c21 [Compound 140] | < 1000 |
| CCn1nc(C)cc1C(=O)Nc1nc2cc(C(N)=O)cnc2n1C/C=C/Cn1c(NC(=O)c2oc(C)nc2C)nc2cc(C(N)=O)cc(OCCCO)c21 [Compound 113] | 1000 to 50000 |
| COc1cc(C(N)=O)cc2nc(NC(=O)c3nc(C)oc3C)n(C/C=C/Cn3c(NC(=O)c4nc(C)oc4C)nc4cc(C(N)=O)cc(OCCCO)c43)c12 [compound 13] | ≥ 50000 |
| COc1cc(C(N)=O)cc2nc(NC(=O)c3cnc(C(F)(F)F)s3)n(C/C=C/Cn3c(NC(=O)c4cnc(C(F)(F)F)s4)nc4cc(C(N)=O)cc(OCCCO)c43)c12 [compound 17] | ≥ 50000 |
| CCn1nc(C)cc1C(=O)Nc1nc2cc(CN(C)C)cnc2n1C/C=C/Cn1c(NC(=O)c2cc(C)nn2CC)nc2cc(C(N)=O)cc(OC)c21 [Compound 132] | 1000 to 50000 |
| CCc1nc(C)oc1C(=O)Nc1nc2cc(CN)cc(OC)c2n1C/C=C/Cn1c(NC(=O)c2oc(C)nc2CC)nc2cc(C(N)=O)cc(OCCCO)c21 [Compound 128] | < 1000 |
| CCn1nc(C)cc1C(=O)Nc1nc2cc(CNC(C)=O)cnc2n1C/C=C/Cn1c(NC(=O)c2cc(C)nn2CC)nc2cc(C(N)=O)cc(OC)c21 [Compound 137] | ≥ 50000 |
